{
  "source": "patent US9109041B2",
  "about": "“Analog compounds of analgesic peptides derived from the venom of crotalus durissus terrificus snakes, their uses, compositions, methods of preparation and purification” (priority 2004, dated 2015)",
  "test_system": "prostaglandin E2-induced hyperalgesia",
  "assay": "rat paw pressure test, prostaglandin E2-induced hyperalgesia",
  "conditions": "for pain threshold, FM (g) ± S.E.M: 3 h after PGE2 100 ng/paw i.pl.; for analgesic activity: synthetic peptides compared with natural ENPAK-k, similar conditions",
  "key": {"[1]": {"conditions": "oral route, reversal of PGE2-induced hyperalgesia, CurveExpert 1.3"}},
  "note": "Bridges are numbered along the chain shown (N, C = ends). Where no end group is shown, it is not given here. [ ]: non-standard residue; d: D form. pGlu = O=C1CC[C@@H](C(=O)O)N1",
  "data": [
    {"molecule": "CN1CC[C@]23c4c5ccc(O)c4O[C@H]2[C@@H](O)C=C[C@H]3[C@H]1C5", "note": "[Morphine, reference compound]", "values": [
      {"measurement": "pain threshold, FM (g) ± S.E.M", "setting": "morphine 0.004 μg/kg p.o.", "result": "69 ± 1.87", "unit": "g"},
      {"measurement": "pain threshold, IM (g) ± S.E.M.", "setting": "morphine 0.004 μg/kg p.o., before PGE2", "result": "77 ± 1.22", "unit": "g"},
      {"measurement": "pain threshold, FM (g) ± S.E.M", "setting": "morphine 0.2 μg/kg p.o.", "result": "70 ± 1.58", "unit": "g"},
      {"measurement": "pain threshold, IM (g) ± S.E.M.", "setting": "morphine 0.2 μg/kg p.o., before PGE2", "result": "76 ± 1.87", "unit": "g"},
      {"measurement": "pain threshold, FM (g) ± S.E.M", "setting": "morphine 1 μg/kg p.o.", "result": "85 ± 1.58", "unit": "g"},
      {"measurement": "pain threshold, IM (g) ± S.E.M.", "setting": "morphine 1 μg/kg p.o., before PGE2", "result": "78 ± 1.22", "unit": "g"},
      {"measurement": "pain threshold, FM (g) ± S.E.M", "setting": "morphine 5 μg/kg p.o.", "result": "109 ± 1.87", "unit": "g"},
      {"measurement": "pain threshold, IM (g) ± S.E.M.", "setting": "morphine 5 μg/kg p.o., before PGE2", "result": "78 ± 1.22", "unit": "g"},
      {"measurement": "50% effective dose", "setting": "[1]", "result": 0.05515, "unit": "µg/kg"},
      {"measurement": "90% effective dose", "setting": "[1]", "result": 0.3267, "unit": "µg/kg"}
    ]},
    {"molecule": "SEQ ID NO: 3: one of 4 possible sequences pGlu-Phe-Ser-Pro-Glu-Asn-Cys-Lys/Gln-Gly-Glu-Ser-Lys/Gln-Pro-Cys; modified synthetic peptide (XFSPENCQGESKPC; Synthetically generated peptide)", "values": [
      {"measurement": "pain threshold, FM (grams) ± S.E.M.", "setting": "p.o., 2 ml of solution (peptide diluted in 11 ml of saline), 3 hours after PGE2 100 ng/paw i.pl.", "result": "110 ± 2.74", "unit": "grams"},
      {"measurement": "pain threshold, IM (grams) ± S.E.M.", "setting": "p.o., 2 ml of solution (peptide diluted in 11 ml of saline), before PGE2", "result": "76 ± 1.00", "unit": "grams"},
      {"measurement": "analgesic activity", "result": "demonstrated analgesic activity"}
    ]},
    {"molecule": "SEQ ID NO: 6: one of 4 possible sequences pGlu-Phe-Ser-Pro-Glu-Asn-Cys-Lys/Gln-Gly-Glu-Ser-Lys/Gln-Pro-Cys; synthetic peptide (XFSPENCKGESQPC; Synthetically generated peptide)", "values": [
      {"measurement": "analgesic activity", "result": "inactivity"}
    ]},
    {"molecule": "SEQ ID NO: 7: one of 4 possible sequences pGlu-Phe-Ser-Pro-Glu-Asn-Cys-Lys/Gln-Gly-Glu-Ser-Lys/Gln-Pro-Cys; synthetic peptide ([pGlu]FSPENCKGESKPC; disulfide 7-14)", "values": [
      {"measurement": "analgesic activity", "result": "inactivity"}
    ]}
  ]
}
